Test system: A673 NR0B1-luciferase reporter, viability-normalised luminescence
Test: suppressors of NR0B1-promoter luciferase reporter, dose response, EWS/Fli inhibitor project, luciferase luminescence, A673 cells, cherry-pick (AID 686920)

| SMILES | AC35 [µM] |
| --- | --- |
| COc1ccc(/C=C/C(=O)c2cc(F)ccc2OC(=O)c2ccccc2OC)cc1OC | 1.59 |
| CC(C)N1C/C(=C/c2ccsc2)C(=O)/C(=C/c2ccsc2)C1 | 5.52 |
| CC(=O)OC1CC(OC2C(O)CC(OC3C(O)CC(OC4CCC5(C)C(CCC6C5CCC5(C)C(C7=CC(=O)OC7)C(O)CC65O)C4)OC3C)OC2C)OC(C)C1OC1OC(CO)C(O)C(O)C1O (stereo not given) | 0.812 |
| Oc1cccc(-c2nnc(-c3cccc(O)c3)nn2)c1 | 7.64 |
| C[C@@H]1O[C@@H](O[C@@H]2C=C3CC[C@@H]4C(CC[C@]5(C)[C@@H](c6ccc(=O)oc6)CC[C@]45O)[C@@]3(C)CC2)[C@H](O)[C@H](O)[C@H]1O (stereo not given in full) | < 0.03 |
| CCOc1ccc(/C=C2\CCc3ccccc3C2=O)cc1 | 9.24 |
| CCc1cccc2c(C(=O)CN3C(=O)NC4(CCCCC4)C3=O)c[nH]c12 | 14.1 |
| N#C[C@H]1N[C@H](CO)[C@H]1c1ccc(C#Cc2ccccc2F)cc1 | 0.137 |
| C[C@H](CO)N1C[C@H](C)[C@H](CN(C)Cc2ccc(C(=O)Nc3ccccc3N)cc2)Oc2ccc(NS(=O)(=O)c3cccs3)cc2C1=O | 11.6 |
| CC1=NC(=O)C(N=Nc2cccc(C(=O)O)c2)N1c1ccccc1 (stereo not given) | 6.99 |
| CN(C[C@H]1N[C@@H](CO)[C@@H]1c1ccc(C2=CCCC2)cc1)C(=O)c1ccc(F)cc1 | 5.59 |
| C[C@H]1CN([C@@H](C)CO)C(=O)Cc2cc(NC(=O)CCCCCC(=O)Nc3ccccc3N)ccc2O[C@H]1CN(C)Cc1ccc(Oc2ccccc2)cc1 | 5.63 |
| COc1ccc(/C=C2/SC(=S)N(CCCC(=O)Nc3ccccc3C(=O)O)C2=O)cc1 | 5.83 |
| CN(C)c1ccc(N=Nc2ccc(C(=O)O)cc2)cc1 | 5.73 |
| C[C@H]1CN([C@@H](C)CO)C(=O)c2cc(N(C)C)ccc2O[C@H]1CN(C)Cc1ccc(C(=O)Nc2ccccc2N)cc1 | 15 |
| COC(=O)c1ccccc1-c1c2ccc(=N)cc-2oc2cc(N)ccc12 | 2.83 |
| COC1C(O)C(C)OC(OC2C(Oc3cccc4c(O)c5c(=O)oc6ccc(C)c7c(=O)oc(c34)c5c67)OC(C)C(O)C2O)C1O (stereo not given) | 4.49 |
| C[C@@H]1CN([C@H](C)CO)S(=O)(=O)c2ccc(C#CC(C)(C)O)cc2O[C@H]1CN(C)Cc1ccc(-c2ccccc2)cc1 | 4.22 |
| C[C@@H]1CN([C@@H](C)CO)C(=O)c2cc(NS(=O)(=O)c3ccc(F)cc3)ccc2O[C@@H]1CN(C)Cc1ccc(C(=O)Nc2ccccc2N)cc1 | 9.48 |
| C[C@@H]1CN([C@H](C)CO)C(=O)c2cc(NS(=O)(=O)c3ccc(Cl)cc3)ccc2O[C@@H]1CN(C)Cc1ccc(Cl)c(Cl)c1 | 29.1 |
| Cc1ccsc1/C=N/Nc1cccc(C(=O)O)c1 | 0.832 |
| CN1C2CCC1/C(=C/c1ccccn1)C(=O)/C2=C\c1ccccn1 | 1.87 |
| COc1ccccc1N(/N=C1\Sc2ccccc2C1=O)C(C)=O | 23.6 |
| CCOc1ccc(-c2noc(CCC(=O)O)n2)cc1 | 1.17 |

| SMILES | AC35 [µM] |
| --- | --- |
| O=C1C(=O)N(CCS(=O)(=O)c2ccccc2)c2ccc(Cl)cc21 | 12.2 |
| Nc1ccc2c(c1)OC1(CCCC1)O2 | 6.63 |
| Oc1[nH]c2ccc(Br)cc2c1N=NC(=S)N1CCOCC1 | 26.5 |
| CCOC(=O)Cc1csc(NC(=S)NC(=O)c2ccc(C)cc2)n1 | 0.265 |
| N#C[C@@H]1[C@H](c2ccc(C#Cc3ccc(F)cc3)cc2)[C@@H](CO)N1C(=O)Nc1ccc(F)cc1 | 5.54 |
| CCOc1cc(N2CCC(O)CC2)ccc1Nc1ncc2c(n1)N(C)c1ccccc1C(=O)N2C | 2.01 |
| Nc1nc2cc3c(cc2cc1C(=O)NCCc1c[nH]c2ccccc12)OCO3 | 4.31 |
| O=C(NC(c1ccc(F)cc1)c1ccc2ccccc2n1)C1CCN(Cc2cccc(C(F)(F)F)c2)CC1 (stereo not given) | 7.77 |
| COc1cc(-c2cnc3c(NC=O)cc(-c4cccc(NC(C)=O)c4)cn23)cc(OC)c1OC | 0.298 |
| O=c1cc(-c2ccccc2)oc2ccc3ccccc3c12 | 1.43 |
| Cc1ccc(/C=N/Nc2ccnc3cc(Cl)ccc23)c(C)c1 | 15.3 |
| CC(C)NC(=O)N(C)C[C@@H]1Oc2cc(C#Cc3ccc(F)cc3)ccc2S(=O)(=O)N([C@H](C)CO)C[C@H]1C | 33.9 |
| CC(=O)c1ccc(NC(=O)c2noc3c2CCC3)cc1 | 3.06 |
| COc1ccc(C2=Nn3c(nnc3-c3ccccc3OC)SC2)cc1OCC1CC1 | 6.71 |
| COc1ccc(CCCNC(=O)C2Cc3c(-c4ccc5c(c4)OCO5)ccnc3O2)cc1 (stereo not given) | 10.5 |
| CCN1CCS/C1=C\C=C\C1=[N+](CC)CCS1 | 12.3 |
| Nc1ccc(-c2cc3ccccc3c(=O)o2)cc1 | 0.485 |
| CN=c1scc(-c2ccccc2F)n1/N=C/c1ccc(O)c(O)c1O | 15.7 |
| CC(=O)Nc1cccc(-c2ccnc3c2CC(C)(C(=O)NCc2ccc(N(C)C)cc2)O3)c1 (stereo not given) | 7.51 |
| COc1ccc(C=NNc2nc3ccccc3s2)cc1 | 6.43 |
| CCc1ccc(S(=O)(=O)c2ccc(-n3nc(C)cc3N)cc2)cc1 | 31.4 |
| O=C1NC(=O)N(Cc2ccccc2)C(=O)/C1=C\C=C\c1ccco1 | 10.4 |
| CO[C@H]1CN(C)C(=O)c2cc(NC(=O)c3ccc(Oc4ccccc4)cc3)ccc2OC[C@H](C)NC[C@@H]1C | 26.5 |
| COC(=O)C[C@@H]1CC[C@@H]2[C@H](COc3ccc(NC(=O)Nc4ccc(C#N)cc4)cc3C(=O)N2C)O1 | 62.4 |

| SMILES | AC35 [µM] |
| --- | --- |
| COc1cccc(O)c1CN1CCC(C(=O)Nc2ccc(-c3cccc(C)c3)cc2)CC1 | 29.1 |
| Oc1c(C(c2ccc(Cl)cc2)N2CCCC2)cc(Cl)c2cccnc12 (stereo not given) | 9.79 |
| C[C@@H]1O[C@@H](O[C@H]2C[C@@H](O)[C@]3(CO)[C@@H]4C(CC[C@]3(O)C2)[C@@]2(O)CC[C@H](C3COC(=O)C3)[C@@]2(C)C[C@H]4O)[C@H](O)[C@H](O)[C@H]1O (stereo not given in full) | 1.97 |
| COC(=O)CC1(C(=O)OC)Oc2ccc(Br)cc2C(=O)N1c1cccc(Cl)c1Cl (stereo not given) | 15 |
| CC1(C)N=C(N)N=C(N)N1c1ccc(CCCCc2ccccc2)cc1 | 2.72 |
| O=C1NC2C(=CC(O)C(O)C2O)c2cc3c(cc21)OCO3 (stereo not given) | 0.429 |
| Cc1cccc(/C=C(\c2nc3ccccc3[nH]2)S(=O)(=O)c2ccccc2)c1 | 5.46 |
| N#CC(=C1C=CC(=NO)C(Cl)=C1)c1ccccc1 | 5.85 |
| NC1=CC(=O)C(=O)c2cccnc21 | 14 |
| CC(C)(C)c1ccc(/C=N/Nc2ccc(C(=O)O)cc2)cc1 | 2.22 |
| C(=NNc1ccc2ccccc2n1)c1ccccn1 | 1.55 |
| Cc1ccc2c(=O)n3c(nc2c1)C(Cc1ccc(O)cc1)NC(=O)c1cc2ccccc2cc1-3 (stereo not given) | 6.25 |
| Cc1[nH][nH]c(=O)c1C(c1c(C)[nH][nH]c1=O)c1cn(Cc2ccc(Cl)c(Cl)c2)c2ccccc12 | 4.99 |
| COc1cc(/C=C/C(=O)/C=C(O)/C=C/c2ccc(O)c(OC)c2)ccc1O | 5.92 |
| COc1ccc(Nc2oc(COc3ccccc3OC)nc2C#N)cc1 | 6.24 |
| CCN(Cc1ccccc1)c1ccc(/C=N/N=C(N)N)cc1 | 10.6 |
| CC(=NNc1cc(C)c2ccccc2n1)c1ccccn1 | 8.23 |
| Cc1c(-c2nc(-c3ccc(C(C)(C)C)cc3)no2)n(C)oc1=O | 35.5 |
| O=C(C[C@@H]1C[C@H]2c3cc(NC(=O)CC4CC4)ccc3O[C@H]2[C@H](CO)O1)NCc1ccccc1F | 40.3 |
| COc1ccc(-c2cc(CNc3nc(NC(C)C)nc4cc(-c5ccccc5)sc34)on2)cc1 | 15.7 |
| O=C(O)c1ccc(N/N=C/c2cc(Br)cs2)cc1 | 7.22 |
| O=c1c2ccccc2nc(/C=C/c2cc(Br)ccc2O)n1CCCO | 23.9 |

Source: PubChem BioAssay AID686920 (Broad Institute, 2013)
